Tests used:
Assay type in all cases: in vivo
[1] = tested on: adult flies Musca domestica strain WHO-N; assay: Musca domestica test (MUSCDO surface treatment & contact assay); conditions: 24 hours after contact, read-out: efficacy (mortality); for mortality at 4 mg/m2: surface concentration 4 mg/m^2, 30 minutes exposure; for mortality at 20 mg/m2: surface concentration 20 mg/m^2, 30 minutes exposure
Summary of the method: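 Compound dissolved in acetone (2 mg/ml) with 2000 ppm rapeseed oil methyl ester and dried onto a glazed tile. Adult flies exposed to the treated surface for 30 min. Percent mortality scored 24 h after contact.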

[2] = tested on: adult brown dog ticks (Rhipicephalus sanguineus); assay: Rhipicephalus sanguineus in-vitro contact test with adult brown dog ticks; conditions: 1 μg/cm^2 (=100 g/ha), after 48 hours
Procedure: Rhipicephalus sanguineus—In-Vitro Contact Tests with Adult Brown Dog Ticks
(§1) 9 mg compound is solved in 1 mL acetone and diluted with acetone to the desired concentration. 250 μL of the test solution is filled in 25 mL glass test tubes and homogeneously distributed on the inner walls by rotation and tilting on a shaking device (2 h at 30 rpm). With a compound concentration of 900 ppm, an inner surface of 44.7 cm^2 and a homogeneous distribution, a dose of 5 μg/cm^2 is achieved.
After the solvent has evaporated, each test tube is filled with 5-10 adult brown dog ticks (Rhipicephalus sanguineus), closed with a perforated lid and incubated in a lying position at room temperature and relative humidity. After 48 hours efficacy is determined. The ticks are patted on the ground of the tubes and are incubated on a heating plate at 45-50° C. for at most 5 minutes. Immotile or uncoordinated moving ticks, which are not able to escape the heat by climbing upwards, are marked as dead or moribund.
An efficacy of 100% means all ticks are dead or moribund; 0% means no ticks are dead or moribund.

[3] = tested on: cattle tick larvae (Rhipicephalus microplus); assay: Rhipicephalus (Boophilus) microplus in-vitro contact test, larval cattle tick (strain Parkhurst, resistant against synthetic pyrethroids); conditions: 1 μg/cm^2 (=100 g/ha), after 48 hours, read-out: efficacy (larvae dead or moribund)
Summary of the method: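 Efficacy is read at 48 h from negative geotactic behaviour after larvae are patted to the tube bottom, expressed as percentage dead or moribund. Larvae (20-50) sit in glass tubes whose walls carry an evaporated acetone film of compound (900 ppm corresponds to 5 μg/cm^2), kept at 27° C., 85% relative humidity.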

[4] = tested on: adult mosquitoes Culex quinquefasciatus strain P00; assay: Culex quinquefasciatus test (CULXFA surface treatment & contact assay); conditions: surface concentration 20 mg/m^2, 30 minutes exposure, 24 hours after contact, read-out: efficacy (mortality)
Summary of the method: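 Compound dissolved in acetone (2 mg/ml) with 2000 ppm RME and applied to glazed tile; after acetone evaporation, adults exposed to dried surface for 30 min. Percent mortality scored 24 h after contact.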

[5] = tested on: adult cat fleas (Ctenocephalides felis); assay: Ctenocephalides felis in-vitro contact test, adult cat flea; conditions: 1 μg/cm^2 (=100 g/ha), after 48 hours
Procedure: Ctenocephalides felis—In-Vitro Contact Tests Adult Cat Flea
as §1
After the solvent has evaporated, each test tube is filled with 5-10 adult cat fleas (Ctenocephalides felis), closed with a perforated lid and incubated in a lying position at room temperature and relative humidity.
After 48 hours efficacy is determined. The fleas are patted on the ground of the tubes and are incubated on a heating plate at 45-50° C. for at most 5 minutes. Immotile or uncoordinated moving fleas, which are not able to escape the heat by climbing upwards, are marked as dead or moribund.
An efficacy of 100% means all fleas are dead or moribund; 0% means no fleas are dead or moribund.

[6] = tested on: adult mosquitoes Aedes aegypti strain MONHEIM; assay: Aedes aegypti test (AEDSAE surface treatment & contact assay); conditions: 24 hours after contact, read-out: efficacy (mortality); for mortality at 4 mg/m2: surface concentration 4 mg/m^2, 30 minutes exposure; for mortality at 20 mg/m2: surface concentration 20 mg/m^2, 30 minutes exposure
Summary of the method: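 Test compound dissolved in acetone (2 mg/ml) with 2000 ppm rapeseed oil methyl ester, applied to glazed tile and dried. Adult Aedes aegypti MONHEIM placed on surface for 30 min exposure; % mortality scored 24 h after contact.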

[7] = tested on: green peach aphid (Myzus persicae); assay: Myzus persicae spray test; conditions: foliar, 120 h, 100 g/ha, Chinese cabbage leaf disks, after 5 days
Procedure: Myzus persicae—Spray Test • Solvent: 78.0 parts by weight acetone • 1.5 parts by weight dimethylformamide • Emulsifier: alkylarylpolyglycol ether
(§2) To produce a suitable preparation of active compound, 1 part by weight of active compound is mixed with the stated amount of solvents and is diluted with water, containing an emulsifier concentration of 1000 ppm, to the desired concentration. Further test concentrations are prepared by dilution with emulsifier containing water.
Chinese cabbage (Brassica pekinensis) leaf disks infected with all instars of the green peach aphid (Myzus persicae), are sprayed with a preparation of the active ingredient of the desired concentration.
After 5 days mortality in % is determined. 100% means all aphids have been killed and 0% means none of the aphids have been killed.

[8] = tested on: fall armyworm larvae (Spodoptera frugiperda); assay: Spodoptera frugiperda spray test; conditions: 168 h, maize leaf sections, after 7 days
Summary of the method: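 Maize leaf sections sprayed with compound in acetone/dimethylformamide, diluted in water with 1000 ppm alkylarylpolyglycol ether emulsifier. Dried sections infested with fall armyworm larvae. Mortality (%) scored after 7 days; 100% = all caterpillars killed.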

[9] = tested on: brown planthopper (Nilaparvata lugens); assay: Nilaparvata lugens spray test; conditions: 96 h, rice plants, after 4 days
Procedure: Nilaparvata lugens—Spray Test • Solvent: 78.0 parts by weight of acetone • 1.5 parts by weight of dimethylformamide • Emulsifier: alkylarylpolyglycol ether
as §2
Rice plants (Oryza sativa) are sprayed with a preparation of the active ingredient of the desired concentration and the plants are infested with the brown planthopper (Nilaparvata lugens).
After 4 days mortality in % is determined. 100% means all planthoppers have been killed and 0% means none of the planthoppers have been killed.

[10] = tested on: larvae of the banded cucumber beetle (Diabrotica balteata); assay: Diabrotica balteata spray test; conditions: 168 h, 100 g/ha (=32 μg/well), wheat seeds, after 7 days, read-out: efficacy (seedling growth)
Summary of the method: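 Germinated wheat seedlings (5 per well, on agar) sprayed with compound in acetone/dimethylformamide diluted in water with 1000 ppm emulsifier, then infested with 10-20 Diabrotica balteata larvae. Efficacy (%) scored after 7 days: 100% = seedling growth as untreated, uninfested control; 0% = no seedlings grown.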

[11] = tested on: adult Blattella germanica strain PAULINIA; assay: whole plant or invertebrate; conditions: read-out: efficacy (mortality)
Procedure: Blattella germanica Test (BLTTGE Surface Treatment & Contact Assay) • Solvent: Aceton+2000 ppm rapeseed oil methyl ester (RME)
In order to produce a sufficient, active ingredient containing solution it is necessary to solve the test compound in the solvent-mix (acetone at 2 mg/ml/RME 2000 ppm). This solution is pipetted onto a glazed tile and after evaporation of the acetone, adult animals of the species Blattella germanica strain PAULINIA are placed onto the dried surface. The exposure time is 30 minutes.
Mortality in percent (%) is determined 24 hours after contact of the insects to the treated surface. 100% mortality means that all tested insects are dead, whereas 0% means that no insect died.

[12] = tested on: larvae of the southern green stink bug (Nezara viridula); assay: Nezara viridula spray test; conditions: 96 h, barley plants, after 4 days
Summary of the method: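 Barley plants sprayed with compound in acetone/dimethylformamide, diluted in water with 1000 ppm alkylarylpolyglycol ether emulsifier, then infested with Nezara viridula larvae. Percent mortality read after 4 days (100% = all killed, 0% = none).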

C[C@H](NC(=O)c1cc(C(F)(F)F)cc(C(F)(F)F)c1)c1nc2cccnc2n1-c1ccc(C#N)cn1 [Example I-15]
mortality at 4 mg/m2 [1]: 80 to 100%
mortality at 20 mg/m2 [1]: 80 to 100%
efficacy (ticks dead or moribund) [2]: 80%
pest or weed control at 1 µg/cm2, 100 g/ha [3]: 100%
mortality at 20 mg/m2 [4]: 80 to 100%
efficacy (fleas dead or moribund) [5]: 80%
mortality at 4 mg/m2 [6]: 80 to 100%
mortality at 20 mg/m2 [6]: 80 to 100%
mortality at 100 g/ha [7]: 90%
mortality at 100 g/ha [8]: 100%
mortality at 500 g/ha [9]: 90%
pest or weed control at 32 µg/disc, 100 g/ha [10]: 100%

CC(NC(=O)c1cc(OC(F)(F)F)cc(OC(F)(F)F)c1)c1nc2cccnc2n1-c1ncccn1 (centres unmarked) [Example I-31]
mortality at 4 mg/m2 [1]: 80 to 100%
mortality at 20 mg/m2 [1]: 80 to 100%
mortality at 20 mg/m2 [11]: 80 to 100%
mortality at 500 g/ha [12]: 100%
pest or weed control at 1 µg/cm2, 100 g/ha [3]: 100%
mortality at 20 mg/m2 [4]: 80 to 100%
mortality at 4 mg/m2 [6]: 80 to 100%
mortality at 20 mg/m2 [6]: 80 to 100%
mortality at 100 g/ha [7]: 90%
mortality at 100 g/ha [8]: 100%
pest or weed control at 32 µg/disc, 100 g/ha [10]: 100%

— US20240254121A1, “ALKYLAMIDE SUBSTITUTED, ANNULATED IMIDAZOLES AND USE THEREOF AS INSECTICIDES” (Bayer Aktiengesellschaft, priority 2021, published 2024)
